From US10195156B2, “Compounds and compositions for intracellular delivery of agents” (ModernaTX, Inc., priority 2015, dated 2019) come the findings set out here.

A short description of series [1]: Particle size and polydispersity index of nanoparticle compositions (Zetasizer Nano ZS). It counts as physicochemical. In outline: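 Values are size and PDI readings from a Zetasizer Nano ZS. Measurements are taken in 1×PBS; zeta potential, by contrast, uses 15 mM PBS.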
Series [2] can be described thus: Encapsulation efficiency of RNA (QUANT-IT RIBOGREEN RNA assay). It is filed as physicochemical. An outline of the steps:
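RiboGreen fluorescence (ex ~480, em ~520 nm) measured after 15 min at 37 °C on samples at ~5 μg/mL in TE, pH 7.5, ± 2% Triton X-100 solution. After blank subtraction, free RNA is given as intact-sample signal divided by disrupted-sample signal.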

A short description of series [3]: Lipid clearance: % dose remaining in mouse liver 6 h and 24 h after administration of nanoparticle compositions. Conditions: Table 7c. It is filed as in vivo, CD-1 mice. From the text: (§1) In contrast, hEPO expression in rats induced by administration of a nanoparticle composition including a compound according to one of formulae (I), (Ia1)-(Ia6), (Ib), (II), (IIa), (III), and (IIIa) was substantially […] than that measured for MC3. […] Table 7c and 7d show additional protein expressions and clearance data from compositions with various compounds disclosed herein as compared to with MC3.

The next series concerns Luc expression. Briefly: Luc expression in CD-1 mice (AUC relative to MC3). It counts as in vivo. To be noted: Table 7c. The protocol:
FIG. 15 is a graph summarizing luciferase expression levels at 6 h after administration of nanoparticle compositions containing compounds of the disclosure to CD-1 mice at a dose of 0.5 mpk. Total light flux values were acquired via body luminescent imaging (BLI) 6 h after administration. In this Figure, the numbers 1-7 and 10 refer to the compositions containing Compounds 4-10 and MC3 respectively.
as §1

The test system of the next series is LDL-c. The series is described as follows: LDL levels in LDLr−/− mice after mRNA encoding the LDL receptor. It counts as in vivo, LDLR knockout mice. To be noted: Mus musculus; Table 7b; LDLr−/− mice, 0.5 mpk, LDLr; read-out: LDL levels lipid/untreated LDLr−/− mice 0.5 mpk, LDLr.
Series [4] can be described thus: pKa of nanoparticle compositions. It counts as physicochemical. To be noted: Table 1; rows without footnote mark.
The mark [5] stands for this setting: Table 1, rows without footnote mark.
Setting [6] is: Table 1, rows without footnote mark (lipid:DOPE:cholesterol:PEG-DMG 40:20:38.5:1.5, Luc mRNA; MC3 standard formulation).

With `CCCCCCCCCN(CCCCCC(=O)OCCC)CCC1CCN(C(=O)CN(CCCCCCCCC)CCN(CCCCCCCCC)CCCCCCCCC)CC1` [Compound 59, Propyl 6-((2-(1-(N-(2-(dinonylamino)ethyl)-N-nonylglycyl)piperidin-4-yl)ethyl)(nonyl)amino)hexanoate], in series [1] (Table 1b), the PDI worked out at 0.23 and the “Size (nm)” value was found to be 104.7 nm. Besides, the “EE (%)” value in series [2] (Table 1b) is on record as 98.6%. Moreover, in series [3], the “% Dose Remaining 6 hr” value turned out to be 6.99% and the “% Dose Remaining 24 hr” value is given as 5.03%. Further, the “AUC (p/s*h)” value in the series on Luc expression is recorded as 1.19E+11 p/s*h.
Consider `CCCCCCCCCN(CCCCCCCCC)CCN(CCCCCCCCC)CC(=O)N1CCN(C(=O)CN(CCCCCCCCC)CCCCC(=O)OCCCC)CC1` [Compound 55, Butyl 5-((2-(4-(N-(2-(dinonylamino)ethyl)-N-nonylglycyl)piperazin-1-yl)-2-oxoethyl)(nonyl)amino)pentanoate], for which, in series [1] (Table 1b), the PDI turned out to be 0.23 and the “Size (nm)” value came out at 119.5 nm. In series [2] (Table 1b), the “EE (%)” value amounted to 95.2%. In series [3], the “% Dose Remaining 6 hr” value stood at 2.58% and the “% Dose Remaining 24 hr” value is 1.60%. The “AUC (p/s*h)” value with Luc expression is recorded as 2.00E+10 p/s*h.
Take `CCCCCCCCCN(CCCCCCCCC)CCN(CCCCCCCCC)CC(=O)N1CCN(C(=O)CN(CCCCCCCCC)CCCCCCC(=O)OCC)CC1` [Compound 53, Ethyl 7-((2-(4-(N-(2-(dinonylamino)ethyl)-N-nonylglycyl)piperazin-1-yl)-2-oxoethyl)(nonyl)amino)heptanoate]: in series [1] (Table 1b), the PDI is listed as 0.23 and the “Size (nm)” value is 103.0 nm. Also, the “EE (%)” value in series [2] (Table 1b) is reported as 82.8%. Further, in series [3], the “% Dose Remaining 6 hr” value was found to be 1.35% and the “% Dose Remaining 24 hr” value came to 0.77%. In the series on Luc expression, the “AUC (p/s*h)” value is recorded as 9.22E+09 p/s*h.
Turning to `CCCCCCCCCN(CCCCCCCC(=O)OC)CCC1CCN(C(=O)CN(CCCCCCCCC)CCN(CCCCCCCCC)CCCCCCCCC)CC1` [Compound 57, Methyl 8-((2-(1-(N-(2-(dinonylamino)ethyl)-N-nonylglycyl)piperidin-4-yl)ethyl)(nonyl)amino)octanoate], in series [1] (Table 1b), the PDI stood at 0.23 and the “Size (nm)” value was 101.9 nm. Besides, the “EE (%)” value in series [2] (Table 1b) is reported as 98.8%. Besides, in series [3], the “% Dose Remaining 6 hr” value came out at 0.88% and the “% Dose Remaining 24 hr” value came to 0.24%. In addition, the “AUC (p/s*h)” value in the series with Luc expression came out at 1.21E+11 p/s*h.
`CCCCCCCCCN(CCCCCCCCC)CCN(CCCCCCCCC)CC(=O)N1CCN(C(=O)CN(CCCCCCCCC)CCCCCC(=O)OCCC)CC1` [Compound 54, Propyl 6-((2-(4-(N-(2-(dinonylamino)ethyl)-N-nonylglycyl)piperazin-1-yl)-2-oxoethyl)(nonyl)amino)hexanoate]: in series [1] (Table 1b), the PDI was 0.23 and the “Size (nm)” value was found to be 93.0 nm. The “EE (%)” value in series [2] (Table 1b) is given as 96.9%. Besides, in series [3], the “% Dose Remaining 6 hr” value was found to be 5.18% and the “% Dose Remaining 24 hr” value worked out at 4.77%. Also, the “AUC (p/s*h)” value in the series with Luc expression was 1.89E+10 p/s*h.
As a reminder, the pKa is the negative logarithm of the acid dissociation constant. A low value points to a stronger acid or weaker base. `CCCCCCCCCCCCN(CCCCCCCCCCCC)CC(=O)N1CCN(C(=O)CN(CCCCCCCCCCCC)CCN(CCCCCCCCC)CCCCCCCCC)CC1` [Compound 9, 2-(Didodecylamino)-1-(4-(N-(2-(dinonylamino)ethyl)-N-dodecylglycyl)piperazin-1-yl)ethan-1-one]: the response vs control in vivo at 0.5 mg/kg with LDL-c amounted to 87%. Moreover, the pKa in series [4] is listed as 6.76. This compound had a PDI in series [1] (setting [5]) of 0.170. Further, the “Size (nm)” value in series [1] (setting [6]) worked out at 78.0 nm. Moreover, the “EE (%)” value in series [2] (setting [5]) came out at 99.5%.
Consider `CCCCCCCCCCCCN(CCN(CCCCCCCCC)CCCCCCCCC)CC(=O)N1CCN(C(=O)CN(CCCCCCCCC)CCCCCCCCC)CC1` [Compound 5, 2-(Dinonylamino)-1-(4-(N-(2-(dinonylamino)ethyl)-N-dodecylglycyl)piperazin-1-yl)ethan-1-one], for which, in the series with LDL-c, the response vs control in vivo at 0.5 mg/kg was determined as 47%. The compound further displayed a pKa in series [4] of 7.01. In addition, the PDI in series [1] (setting [5]) was found to be 0.140. The “Size (nm)” value in series [1] (setting [6]) is on record as 85.1 nm. Also, the “EE (%)” value in series [2] (setting [5]) is on record as 98.1%.
As to `CCCCCCCCCCCCN(CCCCCCCCCCCC)CCN(CCCCCCCCC)CC(=O)N1CCN(C(=O)CN(CCCCCCCCC)CCCCCCCCC)CC1` [Compound 6, 2-((2-(Didodecylamino)ethyl)(nonyl)amino)-1-(4-(dinonylglycyl)piperazin-1-yl)ethan-1-one], the response vs control in vivo at 0.5 mg/kg in the series with LDL-c came out at 91%. Also, the pKa in series [4] is listed as 6.62. In series [1] (setting [5]), the PDI is on record as 0.160. Further, the “Size (nm)” value in series [1] (setting [6]) came to 81.4 nm. In addition, the “EE (%)” value in series [2] (setting [5]) is on record as 98.9%.
Consider `CCCCCCCCCN(CCCC(=O)OCCCCC)CCN(CCCCCCCCC)CC(=O)N1CCN(C(=O)CN(CCCCCCCCC)CCCC(=O)OCCCCC)CC1` [Compound 71, Pentyl 4-(nonyl(2-(4-(N-nonyl-N-(2-(nonyl(4-oxo-4-(pentyloxy)butyl)amino)ethyl)glycyl)piperazin-1-yl)-2-oxoethyl)amino)butanoate], for which, in series [1] (Table 1b), the PDI turned out to be 0.18 and the “Size (nm)” value was determined as 99.9 nm. Moreover, the “EE (%)” value in series [2] (Table 1b) is on record as 91.0%. In series [3], the “% Dose Remaining 6 hr” value turned out to be 12.39% and the “% Dose Remaining 24 hr” value was determined as 9.25%. Besides, the “AUC (p/s*h)” value in the series with Luc expression is listed as 1.77E+11 p/s*h.
For the compound `CCCCCCCCCN(CCCCCCC(=O)OCC)CCC1CCN(C(=O)CN(CCCCCCCCC)CCN(CCCCCCCCC)CCCCCCCCC)CC1` [Compound 58, Ethyl 7-((2-(1-(N-(2-(dinonylamino)ethyl)-N-nonylglycyl)piperidin-4-yl)ethyl)(nonyl)amino)heptanoate], in series [1] (Table 1b), the PDI is reported as 0.23 and the “Size (nm)” value amounted to 112.8 nm. In series [2] (Table 1b), the “EE (%)” value worked out at 98.9%. Besides, in series [3], the “% Dose Remaining 6 hr” value came out at 1.37% and the “% Dose Remaining 24 hr” value is given as 0.61%. The “AUC (p/s*h)” value in the series on Luc expression is 1.38E+11 p/s*h.
With `CCCCCCCCCN(CCCCCCCCC)CCN(CCCCCCCCC)CC(=O)N1CCN(C(=O)CN(CCCC(=O)OCCCCC)CCCC(=O)OCCCCC)CC1` [Compound 72, Dipentyl 4,4′-((2-(4-(N-(2-(dinonylamino)ethyl)-N-nonylglycyl)piperazin-1-yl)-2-oxoethyl)azanediyl)dibutyrate], in series [1] (Table 1b), the PDI is listed as 0.22 and the “Size (nm)” value amounted to 102.5 nm. For the same compound, the “EE (%)” value in series [2] (Table 1b) is recorded as 92.7%. In series [3], the “% Dose Remaining 6 hr” value is on record as 7.06% and the “% Dose Remaining 24 hr” value was 6.40%. Besides, the “AUC (p/s*h)” value with Luc expression was 6.53E+10 p/s*h.
Turning to `CCCCCCCCCCCCN(CCCCCCCCCCCC)CC(=O)N1CCN(C(=O)CN(CCCCCCCCC)CCN(CCCCCCCCC)CCCCCCCCC)CC1` [Compound 8, 2-(Didodecylamino)-1-(4-(N-(2-(dinonylamino)ethyl)-N-nonylglycyl)piperazin-1-yl)ethan-1-one], the response vs control in vivo at 0.5 mg/kg with LDL-c came to 66%. The same compound registered a pKa in series [4] of 6.87. The PDI in series [1] (setting [5]) amounted to 0.110. Moreover, the “Size (nm)” value in series [1] (setting [6]) was 83.3 nm. Moreover, the “EE (%)” value in series [2] (setting [5]) is reported as 98.5%.
`CCCCCCCCCN(CCCCC(=O)OCCCC)CCC1CCN(C(=O)CN(CCCCCCCCC)CCN(CCCCCCCCC)CCCCCCCCC)CC1` [Compound 60, Butyl 5-((2-(1-(N-(2-(dinonylamino)ethyl)-N-nonylglycyl)piperidin-4-yl)ethyl)(nonyl)amino)pentanoate]: in series [1] (Table 1b), the PDI worked out at 0.23 and the “Size (nm)” value was found to be 105.7 nm. In addition, the “EE (%)” value in series [2] (Table 1b) stood at 98.8%. In series [3], the “% Dose Remaining 6 hr” value turned out to be 21.18% and the “% Dose Remaining 24 hr” value is on record as 15.98%. Also, the “AUC (p/s*h)” value in the series on Luc expression is 2.84E+11 p/s*h.
For the compound `CCCCCCCCCCCCN(CCCCCCCCCCCC)CCN(CCCCCCCCCCCC)CC(=O)N1CCN(C(=O)CN(CCCCCCCCC)CCCCCCCCC)CC1` [Compound 7, 2-((2-(Didodecylamino)ethyl)(dodecyl)amino)-1-(4-(dinonylglycyl)piperazin-1-yl)ethan-1-one], the response vs control in vivo at 0.5 mg/kg in the series with LDL-c was determined as 63%. For the same compound, in series [4], the pKa is 6.94. The compound further had a PDI in series [1] (setting [5]) of 0.130. Besides, the “Size (nm)” value in series [1] (setting [6]) is recorded as 85.1 nm. Moreover, in series [2] (setting [5]), the “EE (%)” value stood at 99.1%.
The corresponding values for `CCCCCCCCCCCCN(CCCCCCCCCCCC)CCN(CCCCCCCCC)CC(=O)N1CCN(C(=O)CN(CCCCCCCCCCCC)CCCCCCCCCCCC)CC1` [Compound 10, 2-(Didodecylamino)-1-(4-(N-(2-(didodecylamino)ethyl)-N-nonylglycyl)piperazin-1-yl)ethan-1-one] are 98%, 6.58, 0.130, 81.3 nm and 99.2%.
